Data taken from US10875891B2, “Short synthetic peptide and uses thereof” (MacKay Memorial Hospital, priority 2018, dated 2020).
Entries after “also recorded” stand apart in the source; their conditions may differ. Where no end group is shown, it is not given here.

Experiments:
myeloma RPMI 8226 cell = experiment: MTT assay, cell viability; type: cell-based, human; conditions: 20 μM peptide, 24 h, serum-free RPMI1640; FIGS. 1-2
Protocol: The multiple myeloma line RPMI8226 or […] Raw264.7 macrophages were cultivated in complex medium (RPMI1640) supplemented with 10% (vol/vol) heat-inactivated fetal calf serum (Invitrogen), 50 μg/mL penicillin, 50 μg/mL streptomycin, and 2 mM L-glutamine at 37° C. in a 5% CO2 atmosphere
RPMI8226 cells or U266 cells were cultured in serum-free RPMI1640 medium for 24 h, and then cells seeded in 48-well culture plates (3×10^5 cells/well) and cultured in 0.5 ml fresh serum-free RPMI1640 medium containing 20 μM peptide for further 24 h. The cell viability was determined by the MTT assay.
50 μL of the MTT stock solution (5 mg MTT dissolved in 1 ml of sterile PBS) was added to each well, and 50 μL of the MTT stock solution was added to 500 μL of medium alone and used as a negative control. Each sample was Incubates at 37° C. for 4 hours. Aliquots (450 μl) from each sample were taken to a new well of 48-well culture plate, adding 100 μL DMSO, mixing thoroughly using the pipette and reacted at 37° C. for 20 min and absorbance was measured at 570 nm.

[1] = system: Murine psoriasis vulgaris-like skin inflammation model; experiment: IMQ-induced psoriasis vulgaris-like skin inflammation model, H&E histology of back skin; type: in vivo, BALB/c mice; conditions: for acanthosis, quantified epidermal thickness: 25 μM with IMQ cream, 6 days, IMQ control 122±10.5, FIG. 8 panel B
Protocol: (§1) BALB/c mice (8-weeks old females; n=42) were used in this model system. […] Accordingly, in this model, each BALB/c mice received a daily topical dose (62.5 mg) of commercially available IMQ cream (Imiquimod Cream 5% w/w, Aldara™) on the shaved back and the right ear for 6 consecutive days (n=6); whereas the control mice (normal group) were treated with a control cream (n=6). For treatment, each test peptide was mixed with IMQ cream to give a concentration of 25 μM (n=6 per group). Keratinocyte proliferation was determined by BrdU incorporation. BrdU (Sigma-Aldrich) was reconstituted in DMSO as a stock solution of 80 mM. 10 μl of BrdU mixed with 90 μl of PBS was intraperitoneally injected into each mouse for 24 hr prior to euthanasia.
Back skin of the mouse was fixed overnight in 4% paraformaldehyde, dehydrated with graded ethanol series, and paraffinized. Fixed samples were deparaffinized in xylene and rehydrated in a graded series of ethanol. Tissues were sliced into 5-μm sections. General histology was performed using hematoxylin and eosin (H&E) (Merck, Rayway, N.J., USA).
(§2) Slides were blocked with 10% goat serum for 60 min and then incubated with primary antibody against BrdU (1:50 dilution; GTX42641) for 3 hr at RT. The slides were then incubated with peroxidase-labeled donkey immunoglobulin for 30 min and then incubated with chromogen substrate (3,3′-diaminobenzidine) for 2 min before counterstaining with hematoxylin. Quantification was estimated based on high quality images (1208×960 pixels buffer) captured using a Nikon Eclipse 80i light microscope.

Murine dry eye model [2] = experiment: Dry eye animal model, fluorescein eye stain test for corneal injuries; type: in vivo, C57BL/6 mice; conditions: peptide 50 μM topically three times a day for 4 days; for reduction in mean corneal fluorescein staining score compared with vehicle treated control mice: FIG. 3 panel B
Protocol: (§3) C57BL/6 mice (7-8 weeks old, each weighted about 18 to 25 g) were used in this model system. All mice were maintained in the animal facility in accordance with the procedures approved by Mackay Memorial Hospital Review Board (Taiwan, R.O. C.). All animal experimental procedures were conducted according to the ARVO Statement for the Use of Animals in Ophthalmic and Vision Research.
(§4) Dry eyes were induced by placing mice in a controlled environment chamber (CEC) for 14 days in accordance with procedures previously described by Barabino et al (IVOS (2005) 46(8), 2766-2771). Mice placed in the CEC were exposed to a condition, in which relative humidity (RH) was maintained at <25%, temperature at 20-22° C., and airflow at about 15 L/min, for 12 hours per day. Control mice were kept in a normal environment (RH>50%, no air flow, temperature of 20-22° C.) for the same duration.
(§5) A common artificial tear formulation, 1% carboxymethylcelllulose (CMC) dissolved in balanced salt solution (BSS) was used as the peptide vehicle. Peptide (50 μM) or 1% CMC vehicle was topically administered to eyes three times a day, for 4 days.
Corneal epithelial injury was determined by staining with topical fluorescein (100 mg/ml or 10%; FLUORESCITE™, Alcon Laboratories). For dosing, topical fluorescein (0.6 μL of 0.5% sodium fluorescein dissolved in 4.4 μL BSS per eye) was applied via a micro-pipette to the lateral canthus for 15 sec. Corneal fluorescein staining was examined with a slit-lamp biomicroscope under cobalt blue light and photographed with a digital camera. Data is presented as mean±SD. Dye staining of the cornea was scored in a blinded manner as follows: score 0 for no punctuate staining; score 1 when less than one third of the cornea was stained; score 2 when two thirds or less was stained; and score 3 when more than two thirds was stained.

Murine dry eye model [3] = experiment: Dry eye animal model, tear production by phenol red thread test; type: in vivo, C57BL/6 mice; conditions: treated for 4 days; P<0.01 versus vehicle treatment; FIG. 4
Protocol: as §3, §4, §5
Tear production was measured with phenol red-impregnated cotton threads (Zone-Quick; Oasis, Glendora, Calif.). The validity of this test in mice was performed as previously described (Dursun et al., Invest Ophthalmol Vis Sci. 2002; 43:632-8). The threads were held with jeweler forceps and placed in the lateral canthus for 60 seconds. The tear production expressed in millimeters of thread wet by the tear and turned red.

[4] = system: Murine psoriasis vulgaris-like skin inflammation model; experiment: IMQ-induced psoriasis vulgaris-like skin inflammation model, keratinocyte proliferation by BrdU incorporation; type: in vivo, BALB/c mice; conditions: for hyperproliferation of keratinocytes, BrdU-positive cells in the epidermis (labeling index): 25 μM with IMQ cream, day 6, IMQ control 24.5±2.0, FIG. 9 panel B
Protocol: as §1, §2

RPMI8226 cells [5] = experiment: Annexin V/propidium iodide apoptosis by flow cytometry; type: cell-based, human; conditions: treatment for 24 hr; control untreated cells less than 15%; FIG. 6
Protocol: Annexin V/propidium iodide (PI) staining was performed using flow cytometry according to the manufacturer's guidelines (Annexin V-FITC Apoptosis Detection kit; Roche). Briefly, 0.5×10^6 cells were washed in ice-cold PBS without Ca^2+ or Mg^2+ (Life Technologies). The cells were then re-suspended in 100 μl of binding buffer and incubated with 5.0 μl of PI and 2.0 μl of annexin V-fluorescein isothiocynate for 15 min in the dark at room temperature. Flow cytometric analysis was immediately performed using a FACScalibur Instrument (Becton Dickinson).

[6] = system: Murine psoriasis vulgaris-like skin inflammation model; experiment: IMQ-induced psoriasis vulgaris-like skin inflammation model, skin appearance; type: in vivo, BALB/c mice; conditions: 25 μM with IMQ cream, topical daily, six consecutive days; FIG. 7
Protocol: as §1

RPMI8226 cells [7] = experiment: Trypan blue exclusion assay; type: cell-based, human; conditions: vs solvent (DMSO) 7.5±1.3, FIG. 5
Protocol: (§6) The multiple myeloma line RPMI8226 or rat Raw264.7 macrophages were cultivated in complex medium (RPMI1640) supplemented with 10% (vol/vol) heat-inactivated fetal calf serum (Invitrogen), 50 μg/mL penicillin, 50 μg/mL streptomycin, and 2 mM L-glutamine at 37° C. in a 5% CO2 atmosphere RPMI8226 cells or U266 cells were cultured in serum-free RPMI1640 medium for 24 h, and then cells seeded in 48-well culture plates (3×10^5 cells/well) and cultured in 0.5 ml fresh serum-free RPMI1640 medium containing 20 μM peptide for further 24 h. The cell viability was determined by the MTT assay. The cells were examined under a microscope with the aid of a hemacytometer, in which 0.1 mL of trypan blue stock solution (0.4% solution of trypan blue in isotonic salt buffer solution, pH 7.2) was added to 1 mL cell suspension, and loaded therein. The number of blue staining cells (considered non-viable) and the number of total cells were respectively counted. Cell viability should be at least 95% for healthy log-phase cultures.

U266 cells = experiment: Trypan blue exclusion assay; type: cell-based, human; conditions: vs solvent (DMSO) 8.7±1.1, FIG. 5
Protocol: as §6, with “RPMI8226” for “The multiple myeloma line RPMI8226 or rat Raw264.7 macrophages were cultivated in complex medium (RPMI1640) supplemented with 10% (vol/vol) heat-inactivated fetal calf serum (Invitrogen), 50 μg/mL penicillin, 50 μg/mL streptomycin, and 2 mM L-glutamine at 37° C. in a 5% CO2 atmosphere RPMI8226”

NH2-Lys-Ala-Phe-Asp-Ile-Thr-Tyr-Val-Arg-Leu-Lys-Phe-COOH (KAFDITYVRLKF; not fully specified (N-terminus, C-terminus); printed as NH2-Lys-Ala-Phe-Asp-Ile-Thr-Tyr-Val-Arg-Leu-Lys-Phe-COOH) [12-mer, 9-mer with additional 3 amino acid residues at the N-terminal]
myeloma RPMI 8226 cell viability (MTT assay) (myeloma RPMI 8226 cell): successfully suppressed myeloma RPMI 8226 cell viability; also recorded: effective in suppressing myeloma cell viability; also recorded: more potent at lower dose
acanthosis, quantified epidermal thickness [1]: 35.3±4.1 μm
reduction in mean corneal fluorescein staining score compared with vehicle treated control mice (Murine dry eye model [2]): about 3 fold
tear volume (tear production) (Murine dry eye model [3]): significantly increased
hyperproliferation of keratinocytes, BrdU-positive cells in the epidermis (labeling index) [4]: 8.5±1.4%

NH2-Asp-Ile-Thr-Tyr-Val-Arg-Leu-Lys-Phe-COOH (DITYVRLKF; not fully specified (N-terminus, C-terminus); printed as NH2-Asp-Ile-Thr-Tyr-Val-Arg-Leu-Lys-Phe-COOH) [9-mer, short synthetic peptide …]
myeloma RPMI 8226 cell viability (MTT assay) (myeloma RPMI 8226 cell): successfully suppressed myeloma RPMI 8226 cell viability; also recorded: effective in suppressing myeloma cell viability
acanthosis, quantified epidermal thickness [1]: 39.2±2.7 μm
acanthosis and desquamation in skin sections (H&E staining), result in words ([1]; vs IMQ-treated skin sections, FIG. 8 panel A): decrease in acanthosis and less desquamation
myeloma cells exhibiting apoptotic phosphatidylserine exposure (annexin-V staining) (RPMI8226 cells [5]): approximately 54%
reduction in mean corneal fluorescein staining score compared with vehicle treated control mice (Murine dry eye model [2]): about 3 fold
corneal fluorescein stain (corneal damage), result in words (Murine dry eye model [2]; vs vehicle): reduced significantly
skin inflammation and desquamation [6]: reduced level of dosal skin inflammation and desquamation
tear volume (tear production) (Murine dry eye model [3]): significantly increased
hyperproliferation of keratinocytes, BrdU-positive cells in the epidermis (labeling index) [4]: 8.3±1.4%
location of BrdU-positive cells in the epidermis ([4]; day 6 after IMQ treatment, FIG. 9 panel A): restrict to the basal layer of the epidermis
cell viability by trypan blue assay (RPMI8226 cells [7]): 59.7±4.5
cell viability by trypan blue assay (U266 cells): 47.0±4.6
